Assay results published in PubChem BioAssay AID2744 (NMMLSC, 2010).
The source made the active and inactive calls.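 How the source made its calls: active means fitted half-maximal concentration for changing reporter fluorescence at or below a set limit; inactive means the rest.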

Target: Citrate synthase, peroxisomal (Saccharomyces cerevisiae (strain ATCC 204508 / S288c)) (UniProt P08679)
Test: CIT2-GFP expression modulators in yeast, dose response, flow cytometry, MLPCN hits (AID 2744)
Conditions: S. cerevisiae CIT2-GFP strain, 3 h; for GFP fluorescence, higher = induction: at 33 µM (top of the series); for EC50: flow cytometry fluorescence

Sequence of Citrate synthase, peroxisomal (Saccharomyces cerevisiae (strain ATCC 204508 / S288c)) (P08679 whole entry, looked up): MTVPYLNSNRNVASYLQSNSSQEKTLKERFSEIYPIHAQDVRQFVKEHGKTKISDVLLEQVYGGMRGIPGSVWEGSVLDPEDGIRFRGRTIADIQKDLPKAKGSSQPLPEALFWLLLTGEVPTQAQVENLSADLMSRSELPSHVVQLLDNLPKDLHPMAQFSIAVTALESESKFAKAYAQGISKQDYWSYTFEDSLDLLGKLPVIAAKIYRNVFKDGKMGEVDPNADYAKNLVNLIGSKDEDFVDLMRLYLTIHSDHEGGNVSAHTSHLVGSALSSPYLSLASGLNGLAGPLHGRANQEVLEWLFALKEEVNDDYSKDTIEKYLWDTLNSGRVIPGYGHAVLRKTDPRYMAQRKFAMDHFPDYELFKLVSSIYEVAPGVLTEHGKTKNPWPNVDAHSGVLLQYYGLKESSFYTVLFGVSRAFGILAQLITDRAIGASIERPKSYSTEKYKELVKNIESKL

Row | SMILES | GFP fluorescence, higher = induction | EC50
1 | C/C(=N\NC(=O)c1cc2ccccc2cc1O)c1ccccn1 | inactive | –
2 | CNc1nc(N)c([N+](=O)[O-])c(Nc2cccc(F)c2)n1 | – | 4.36 µM
3 | Cc1ccc(/C=C2/C(=O)ON=C2c2ccccc2)o1 | inactive | –
4 | CCCCc1ccc(/C=C2/C(=O)ON=C2c2ccccc2)s1 | inactive | –
5 | COc1ccc(C2(C)ON(c3ccccc3C(F)(F)F)C2=O)cc1 (stereo unspecified) | inactive | –
6 | O=C(CSC1=NS(=O)(=O)c2ccccc21)Nc1ccccc1 | inactive | –
7 | C[C@@]12C(=O)OC(=O)[C@]1(C)C1CCC2O1 | inactive | –
8 | O=c1c2cnn(-c3ccccc3)c2ncn1Cc1ccco1 | inactive | –
9 | CCCCC(=O)NNC(=S)NC(=O)c1ccc(C)cc1 | – | 3.39 µM
10 | O=C(Oc1oc(-c2ccco2)nc1C=Nc1ccccc1)c1ccco1 | inactive | –
11 | CC(=O)CSc1ncnc2c1cnn2-c1ccccc1 | inactive | –
12 | Cc1c(Cc2ccccc2)c(NCCN(C)C)n2c(nc3ccccc32)c1C#N | inactive | –
13 | COc1ccc(-c2cc3nc4n(c(=O)c3s2)CCC4)cc1 | inactive | –
14 | CC1(C)C[C@H]2C=C(C=O)[C@]3(C=O)C[C@]3(C)[C@H]2C1 | – | 1.41 µM
15 | Cc1ccc(C(c2cc(Cl)c3cccnc3c2O)N2CCN(C)CC2)cc1 (stereo unspecified) | inactive | –
16 | COc1cc(C=C2C(=O)c3ccccc3C2=O)cc(OC)c1 | inactive | –
17 | COc1ccccc1-c1nc2s/c(=C\c3cccs3)c(=O)n2n1 | inactive | –
18 | COc1cccc(N=Nc2ccc(O)c3ncccc23)c1 | inactive | –
19 | Cc1ccccc1[C@]1(C)ON(c2ccccc2C(F)(F)F)C1=O | inactive | –
20 | Nc1ccc2ccc3cccc[n+]3c2c1 | inactive | –
21 | CC1=NNC(=O)/C1=C\c1cn(-c2ccccc2)nc1-c1cccs1 | inactive | –
22 | O=C(Oc1cccc2cccnc12)c1ccc(Br)o1 | inactive | –

Row | SMILES | GFP fluorescence, higher = induction | EC50
23 | CCOC(=O)c1cc(-c2ccc(/C=C3/C(=O)NC(=O)C(C#N)=C3C)o2)ccc1Cl | inactive | –
24 | O=C(OCC(=O)N1CCN(C(=O)c2ccco2)CC1)c1cc(-c2ccccc2)nc2ccccc12 | inactive | –
25 | CC1=C(C)/C(=N\OS(=O)(=O)c2ccccc2)C=CC1=O | inactive | –
26 | O=C1N(c2ccccc2C(F)(F)F)O[C@]1(c1ccccc1)C1CCCC1 | inactive | –
27 | O=C(c1ccc(C(=O)N2CCCc3ccccc32)s1)N1CCCc2ccccc21 | inactive | –
28 | COC(=O)CCCC1=CC2=CC(=O)C(C)(OC(=O)CCc3ccccc3)C(=O)C2=CO1 (stereo unspecified) | inactive | –
29 | CN1CCN(C(=O)c2cc(COc3c(F)cccc3F)on2)CC1c1ccccc1 (stereo unspecified) | inactive | –
30 | CC(=O)Oc1ccc(N2C(=O)C3C4C=CC(O4)C3C2=O)cc1 (stereo unspecified) | inactive | –
31 | O=C(NOC(=O)c1ccccc1)c1ccccc1 | inactive | –
32 | O=C(Oc1c(Cl)cc(Cl)c2cccnc12)c1cccs1 | inactive | –
33 | CC(=O)NN1C(=O)/C(=C/c2ccc(Br)o2)SC1=S | inactive | –
34 | Cc1ccc(/C=C/C(=O)c2ccccc(=O)c2O)c(C)c1 | – | 14.7 µM
35 | Cc1cccnc1Nc1nc(-c2ccccn2)cs1 | inactive | –
36 | O=C(Nc1nnc(-c2ccc(Cl)cc2)o1)c1ccccc1Br | inactive | –
37 | Cc1ccc(C(=O)Oc2oc(-c3ccco3)nc2C=Nc2ccc(Cl)cc2)cc1 | inactive | –
38 | Nc1nc(N)c2nc(CNc3ccc(C(=O)NC(CCC(=O)O)C(=O)O)cc3)cnc2n1 (stereo unspecified) | inactive | –
39 | COc1ccccc1C(=O)NNC(=S)NC(=O)c1cccs1 | inactive | –
40 | Cc1ccc(S(=O)(=O)N2CC(C(=O)O)=CC[C@H]2c2ccc(Cl)cc2)cc1 | inactive | –
41 | CCOC(=O)Cn1cc(/C=C/[N+](=O)[O-])c2ccccc21 | inactive | –
42 | CC[C@H](C)/C=C(C)/C=C/C1=CC2=C(Cl)C(=O)[C@@](C)(OC(C)=O)C(=O)C2=CO1 | inactive | –
43 | O=C1C=C(c2ccc(Cl)cc2)C(=O)N1Nc1ccccc1 | inactive | –
44 | N/C(Cc1ccc(Cl)c(Cl)c1)=N\OC(=O)c1cccs1 | – | 10.3 µM

Row | SMILES | GFP fluorescence, higher = induction | EC50
45 | Cc1ccc(NC(=O)c2cc(N3C(=O)C=CC3=O)ccc2N2CCOCC2)cc1Cl | inactive | –
46 | CCCCNc1c2c3c(cccc3n(C)c1=O)C(=O)c1ccccc1-2 | inactive | –
47 | O=C(OCn1ncc(Br)c(Br)c1=O)c1c(F)cccc1F | inactive | –
48 | Cc1cccc(C(=O)NNC(=S)NC(=O)c2ccccc2)c1 | inactive | –
49 | CN1CCN(C(c2ccc(C(F)(F)F)cc2)c2ccc3cccnc3c2O)CC1 (stereo unspecified) | inactive | –
50 | N/C(Cc1ccc(Cl)cc1)=N\OC(=O)c1cccc2ccccc12 | – | 1.35 µM
51 | O=[N+]([O-])c1cc(CN2CCN(c3ccccc3)CC2)c(O)c2ncccc12 | inactive | –
52 | C[C@@H]1C[C@@H]([C@H](O)CC2CC(=O)NC(=O)C2)C(=O)[C@@H](C)C1 | inactive | –
53 | CCC(=O)Oc1oc(-c2ccccc2)nc1C=Nc1ccccc1OC | inactive | –
54 | O=C1CC(c2ccccc2)=NN1c1nc(-c2ccccc2)cs1 | inactive | –
55 | O=C1C=CC(=O)N1c1ccc(O)cc1 | inactive | –
56 | O=[N+]([O-])c1ccc(Sc2nc3ccccc3o2)c([N+](=O)[O-])c1 | inactive | –
57 | O=c1c2sc(-c3ccccc3)cc2nc2n1CCC2 | inactive | –
58 | O=C(c1ccc(Cl)cc1)N1CCN(c2cccc3[nH]ccc23)CC1 | inactive | –
59 | COc1ccc(NC(=O)/C(Cl)=C(/Cl)S(=O)Cc2ccccc2)cn1 (stereo unspecified) | inactive | –
60 | CC(=O)Oc1ccc(/C=c2\sc3ncnn3c2=O)cc1 | inactive | –
61 | Cc1nn2c(-c3ccncc3)nnc2c2ccccc12 | inactive | –
62 | CCc1ccc2c(c1)/C(=C/C(=O)c1cccs1)C(=O)N2 | inactive | –
63 | O=S(=O)(c1ccccc1)c1ccc(C(F)(F)F)cn1 | inactive | –
64 | O=C1c2cccc3c([N+](=O)[O-])ccc(c23)C(=O)N1O | inactive | –
65 | Cc1ccc(S(=O)(=O)/N=C(\Sc2ccccc2)c2ccccc2)cc1 | inactive | –
66 | Cc1ccc(NC(=O)ON=C2CCCC2)cc1 | – | 3.79 µM

Row | SMILES | GFP fluorescence, higher = induction | EC50
67 | COc1ccc(CCNC2=C(Cl)C(=O)N(CCc3ccccc3)C2=O)cc1OC | inactive | –
68 | CC1(C(=O)NC(=S)NNC(=O)c2ccncc2)CCCCC1 | inactive | –
69 | COc1cc(NC(=O)c2ccc(C)cc2)ccc1NC(=O)c1cc2ccccc2o1 | inactive | –
70 | CCc1ccc(OCC(=O)NNC(=S)NC(=O)C2CC2)c(Br)c1 | inactive | –
71 | O=C(Nc1nnc(-c2ccc(F)cc2)o1)c1cc(Cl)sc1Cl | inactive | –
72 | O=C(/C=C/c1ccccc1)NC(=S)NNC(=O)Cc1cccs1 | inactive | –
73 | O=[N+]([O-])c1cc(F)c2cccnc2c1O | inactive | –
74 | O=C(OCn1ncc(Br)c(Br)c1=O)c1ccc(F)cc1 | inactive | –
75 | CCOC(=O)c1c(C)oc2c1c(C(c1ccncc1)N1CCOCC1)c(O)c1ccccc12 (stereo unspecified) | inactive | –
76 | CC(C)[C@]1(c2ccccc2)ON(c2ccccc2C(F)(F)F)C1=O | inactive | –
77 | O=c1c2cc(Br)ccc2nc(-c2ccc([N+](=O)[O-])cc2)n1O | inactive | –
78 | C[C@H]1C[C@@H](C)C(=O)[C@@H]([C@H](O)CC2CC(=O)NC(=O)C2)C1 | inactive | –
79 | COc1ccc(/C=C/C(=O)c2cc(Br)ccc(=O)c2O)cc1 | inactive | –
80 | Cc1ccc(C(=O)NNC(=S)NC(=O)c2ccco2)cc1 | inactive | –
81 | O=C(c1ccc(Cl)c([N+](=O)[O-])c1)N1CCN(c2ccccc2)CC1 | inactive | –
82 | COc1cc(/C=C/[N+](=O)[O-])ccc1O | inactive | –
83 | CCCCC1OC23CCCCC2C(C#N)(C(=N)O3)C1(C#N)C#N (stereo unspecified) | inactive | –
84 | CN(C)NC(=S)Nc1ccc(S(=O)(=O)N2CCCCC2)cc1 | inactive | –
85 | CCSc1nnc(NC(=O)c2ccccn2)s1 | inactive | –
86 | COc1ccc2c(c1)c1nnc(SC)nc1n2C | inactive | –
